The record followed here is US8586591B2, “Aminopyrazine derivative and medicine” (Nippon Shinyaku Co., Ltd., priority 2009, dated 2013).

Test [1] deals with T1, JAK2 tyrosine kinase (Homo sapiens, UniProt O60674).
T1 construct: purchased Carnabioscience Co
Nature of the test: Test 1: inhibitory activity to JAK2 tyrosine kinase (ELISA). Type of test: biochemical. The following applies: 25 μM ATP in substrate solution, 30° C. for 1 hour, n=2. The procedure, abridged:
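Human JAK2 (diluted to 0.75 nM before addition) phosphorylated a biotinylated peptide on streptavidin plates for 1 h at 30 °C. The substrate mix held 625 nM peptide, 25 μM ATP and 25 mM MgCl2 in 15 mM Tris pH 7.5, 0.01% Tween-20 and 1 mM DTT. Phosphotyrosine was detected by HRP antibody/TMB at 450 nm, and IC50 was obtained by non-linear regression; duplicates were run.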

Test [2] concerns the target BaF3 cells into which JAK2 V617F gene was introduced (Homo sapiens, UniProt O60674, V617F, cells depend on it). Description: Test 2: growth inhibitory action against variant JAK2 expressed cells (MTT method). Type of test: cell-based. The following applies: incubation for 3 days, triplicate, read-out: concentration of the test material which inhibited 50% of the cell growth (IC50). The method, then: Test 2: Growth inhibitory action against variant JAK2 expressed cells
BaF3 cells into which JAK2 V617F gene was introduced ([…]) were inoculated on a 96-well plate in an amount of 1×10^3 cells/well and allowed to stand in a CO2 incubator. Next day, the test material was added to the cells. The test material was serially diluted with DMSO to give 10 mM, 6 mM, 3 mM, 1 mM, 600 μM, 300 μM, 100 μM, 60 μM, 30 μM, or 10 μM solution. This was diluted 100 times with distilled water to give 100 μM, 60 μM, 30 μM, 10 μM, 6 μM, 3 μM, 1 μM, 600 nM, 300 nM, or 100 nM solution. This solution of test material was added to the well in an amount of 10 μl/well. As a negative control, 1% DMSO solution was added to the well in an amount of 10 μl/well. In the above operation, the final concentration of the test material became 10 μM, 6 μM, 3 μM, 1 μM, 600 nM, 300 nM, 100 nM, 60 nM, 30 nM, 10 nM, or 0 nM (0.1% DMSO solution). The addition of the test material solution to each well was made in triplicate.
After continuous incubation for 3 days, the viable count was determined by an MTT method. The MTT method was carried out as follows. First, 10 μl each of solution containing 5 mg/ml of MTT (3-(4,5-dimethylthiazol-2-yl)-2,5-diphenyltetrazolium bromide) was added to each well. The plate was allowed to stand in a CO2 incubator for 4 hours, and then 100 μl of 0.04N HCl/2-propanol solution was added to each well to stop the reaction. The generated MTT-formazan was dissolved well with a multi-channel pipette, and the absorbance at 595 nm was measured with reference to that at 655 nm (Thermo Co.; Multiskan FC). Non-linear regression analysis was made by means of a SAS system (SAS Institute Inc.), and the concentration (IC50) of the test material which inhibited 50% of the cell growth was estimated.
Background: Tetrazolium dyes change colour on reduction, which living cells bring about.

Test [3] addresses T2, JAK3 tyrosine kinase (Homo sapiens, UniProt P52333).
T2 construct: purchased Carnabioscience Co
T2 sequence (P52333 1-1124): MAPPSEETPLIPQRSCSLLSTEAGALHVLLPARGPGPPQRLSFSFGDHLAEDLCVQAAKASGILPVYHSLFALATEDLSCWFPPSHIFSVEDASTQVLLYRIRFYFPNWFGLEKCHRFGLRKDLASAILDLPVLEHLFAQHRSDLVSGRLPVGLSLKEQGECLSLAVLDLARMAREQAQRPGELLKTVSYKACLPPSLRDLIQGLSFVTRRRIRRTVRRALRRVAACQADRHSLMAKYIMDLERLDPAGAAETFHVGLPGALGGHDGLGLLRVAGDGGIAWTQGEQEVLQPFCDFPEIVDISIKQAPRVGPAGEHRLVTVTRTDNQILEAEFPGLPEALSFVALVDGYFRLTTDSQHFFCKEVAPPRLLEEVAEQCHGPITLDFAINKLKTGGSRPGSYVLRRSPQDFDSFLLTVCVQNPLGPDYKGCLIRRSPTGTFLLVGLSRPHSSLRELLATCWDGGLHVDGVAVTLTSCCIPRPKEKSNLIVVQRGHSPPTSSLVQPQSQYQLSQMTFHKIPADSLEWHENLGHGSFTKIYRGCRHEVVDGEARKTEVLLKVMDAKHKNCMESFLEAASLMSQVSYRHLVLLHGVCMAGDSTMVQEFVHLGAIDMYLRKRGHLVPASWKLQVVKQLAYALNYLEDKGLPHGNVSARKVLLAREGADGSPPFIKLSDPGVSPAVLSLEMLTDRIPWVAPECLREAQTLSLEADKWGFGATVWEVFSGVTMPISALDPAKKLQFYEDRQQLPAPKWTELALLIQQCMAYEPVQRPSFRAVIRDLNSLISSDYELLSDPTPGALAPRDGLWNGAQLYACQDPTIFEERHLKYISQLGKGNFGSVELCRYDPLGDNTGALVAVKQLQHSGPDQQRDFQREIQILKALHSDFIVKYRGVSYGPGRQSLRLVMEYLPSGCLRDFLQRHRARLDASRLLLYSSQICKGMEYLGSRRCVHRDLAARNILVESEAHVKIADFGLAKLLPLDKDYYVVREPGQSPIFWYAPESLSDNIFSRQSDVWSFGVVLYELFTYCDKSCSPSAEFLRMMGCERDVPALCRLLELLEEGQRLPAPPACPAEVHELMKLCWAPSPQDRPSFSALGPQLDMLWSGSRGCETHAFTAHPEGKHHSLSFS
Description: Test 1: inhibitory activity to JAK3 tyrosine kinase (ELISA). Type of test: biochemical. The following applies: 25 μM ATP in substrate solution, 30° C. for 1 hour, n=2. In outline: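 ELISA of JAK3 kinase activity with absorbance read at 450 nm. Compounds were tested from DMSO dilution series at 100-fold the measurement concentrations (1000–0.01 μM), diluted up to 20 times in assay buffer, against a DMSO negative control. IC50 was estimated by non-linear regression of absorbance.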
In general terms: An ELISA detects its analyte on a solid surface through an enzyme-linked reagent.

T1 sequence (O60674 whole entry): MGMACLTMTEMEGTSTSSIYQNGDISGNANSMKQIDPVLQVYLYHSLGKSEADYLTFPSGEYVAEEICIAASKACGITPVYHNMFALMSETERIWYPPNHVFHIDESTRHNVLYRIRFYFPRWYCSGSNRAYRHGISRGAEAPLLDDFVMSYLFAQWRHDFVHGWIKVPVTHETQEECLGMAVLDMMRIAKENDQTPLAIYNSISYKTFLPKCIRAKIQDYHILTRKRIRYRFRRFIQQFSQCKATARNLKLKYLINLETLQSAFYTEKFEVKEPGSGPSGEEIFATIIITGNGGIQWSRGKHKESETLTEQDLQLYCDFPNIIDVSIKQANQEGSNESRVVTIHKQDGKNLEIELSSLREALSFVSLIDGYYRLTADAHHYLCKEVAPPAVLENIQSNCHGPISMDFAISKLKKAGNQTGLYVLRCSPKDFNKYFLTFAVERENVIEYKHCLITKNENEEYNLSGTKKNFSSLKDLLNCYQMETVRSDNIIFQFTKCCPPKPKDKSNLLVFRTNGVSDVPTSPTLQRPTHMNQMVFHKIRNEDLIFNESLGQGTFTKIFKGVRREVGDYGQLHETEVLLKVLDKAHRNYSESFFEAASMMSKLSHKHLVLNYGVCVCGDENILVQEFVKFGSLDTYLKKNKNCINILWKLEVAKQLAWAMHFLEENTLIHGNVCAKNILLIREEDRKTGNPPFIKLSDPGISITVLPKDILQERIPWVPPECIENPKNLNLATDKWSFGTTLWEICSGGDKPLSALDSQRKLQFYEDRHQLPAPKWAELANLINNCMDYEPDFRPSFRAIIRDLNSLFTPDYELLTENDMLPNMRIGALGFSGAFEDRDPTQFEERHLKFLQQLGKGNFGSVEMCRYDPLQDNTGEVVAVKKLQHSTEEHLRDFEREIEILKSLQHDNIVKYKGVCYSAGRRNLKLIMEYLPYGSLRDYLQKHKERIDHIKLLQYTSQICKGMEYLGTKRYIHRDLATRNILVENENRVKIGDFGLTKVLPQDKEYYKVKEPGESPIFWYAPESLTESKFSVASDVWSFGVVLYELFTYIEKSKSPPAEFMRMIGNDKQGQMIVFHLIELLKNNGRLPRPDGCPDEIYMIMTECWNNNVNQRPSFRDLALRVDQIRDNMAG
BaF3 cells into which JAK2 V617F gene was introduced, sequence (O60674 whole entry V617F): as the sequence (O60674 whole entry) above, with V617F counted along it

Turning to `CC(=O)NCC1CN(c2cc(Nc3cnccn3)nc(N[C@@H](C)c3ccc(F)cc3)n2)C1` [Example 232, (S)—N-[(1-{2-[1-(4-Fluorophenyl)ethylamino]-6-(pyrazin-2-ylamino)pyrimidin-4-yl}azetidin-3-yl)methyl]acetamide], the concentration for half-maximal inhibition (IC50) (as a rule, the concentration that inhibits the measured activity by half) in test [1] was determined as 0.55 nM; in test [3], 32 nM. The GI50 in test [2] is 88 nM.
